# Assays:
# Assay type in all cases: cell-based, human
# [1] = test system: Intestinal epithelial cells of the Caco-2 line; assay: Degree of iron fixation at the cellular level as a function of concentrations (Example 3); conditions: Caco-2 cells, after 72 hours of incubation; tube contents per Table III (mg/ml); Control = 1
# Description: (§1) Intestinal epithelial cells of the Caco-2 line derived from a colon cancer were incubated in a proportion of 2×10^6 cells per ml in an RPMI 1640 medium buffered at pH 7.4, in the presence of 25 mmolar of Hepes, containing 15% (v/v) of fetal calf serum, 2 mmol/l of L-glutamine and 1% (v/v) of a solution of streptomycin-penicillin, sold by the company Gibco.
# Twelve tubes of epithelial cell cultures were prepared according to the conditions described above in Example 1.
# Iron fixation at the cellular level was then initiated by adding Lf-^59Fe and/or labeled iron and/or L-arginine.
# One of the cell culture tubes received none of these three constituents, so as to act as a control.
# The distribution of the constituents, and also the concentrations at which they were used, appear in Table III below:
# The degree of cellular fixation of iron was measured after 72 hours of incubation using a device for measuring the radioactivity.
# [2] = test system: Intestinal epithelial cells of the Caco-2 line; assay: Iron fixation at the cellular level with added chemical donor of NO (Example 2); conditions: SNAP between 0 and 1 μM added to tubes 2 (Lf-^59Fe) and 4 (Lf-^59Fe + ^59Fe) of Table II
# Description: as §1
# Tubes of intestinal epithelial cell cultures were prepared and cultured under the same conditions as those described above in Example 1.
# Iron fixation at the cellular level was then initiated by adding Lf-^59Fe and/or labeled iron.
# One of the cell culture tubes received none of the constituents, so as to serve as a control.
# The distribution of the constituents, and also the concentrations at which they were used, appear in Table II below:
# The culture tubes then received SNAP in amounts ranging between 0 and 1 μM, and the cellular fixation of radiolabeled iron were then measured using a device for measuring the radioactivity.
# [3] = test system: Intestinal epithelial cells of the Caco-2 line; assay: Iron fixation at the cellular level with added inhibitor of the L-arginine pathway (Example 1, FIG. 2); conditions: 1 mM added to the medium of tubes 1, 2, 4 and 8 of Table I; virtually returned to the degree without L-arginine (tube 2)
# Description: as §1
# The cells were then incubated for a period of 16 hours in Eppendorf tubes kept stirring for the final 2 hours of the culture period. Throughout the incubation period, the amount of cellular iron was measured by centrifugation pellet of the cells a first time after 30 minutes (t=0.5), then after one hour (t=1), and then every hour (t=2 to t=16), using a device for measuring the radioactivity.
compound,measurement,setting,value
"N=C(N)NCCC[C@H](N)C(=O)O [Cell culture tube 8, L-arginine, reference compound]",Degree of iron fixation in the cells (cpm ^59Fe),[1],1 cpm ^59Fe
"CC(=O)N[C@H](C(=O)O)C(C)(C)SN=O (racemic) [SNAP, S-nitroso-N-acetylpenicillamine]",Degree of iron fixation in the epithelial cells after addition of SNAP,[2],increase the degree of iron fixation in the epithelial cells
"COC(=O)[C@@H](N)CCCNC(=N)N[N+](=O)[O-] [L-NAME, N^ω-nitro-L-arginine methyl ester]",Degree of iron fixation at the cellular level after addition of L-NAME,[3],very large decrease in the degree of iron fixation at the cellular level

# — US6984624B2, “Composition containing an iron complexing protein and a precursor of nitrogen monoxide metabolism and/or a chemical donor of nitrogen monoxide and uses thereof” (Isocell S.A., priority 2000, dated 2006)
